# Measurements reported in publication PMC6021035, “Insights into biological activity of ureidoamides with primaquine and amino acid moieties” (Journal of Enzyme Inhibition and Medicinal Chemistry, 2018).
# Tests used:
# [1] = system: Candida albicans ATCC 10231; test: MIC determination (broth micro-dilution); format: cell-based; conditions: ATCC10231
# Procedure: (§1) Before analysis, compounds 5a–f were dissolved in 96% ethanol in a concentration of 2 mg/ml as stock solutions. Inoculums were prepared with fresh cultures of microbial strains, cultured on tryptic-soy agar or Sabouraud 2% (m/v) dextrose agar for 18 h (48–72 h for fungi) at 30 °C with physiological saline containing approximately […]. Inoculum density (0.5 McFarland units) was adjusted with a bio Mériex (France) densitometer. Minimum inhibitory concentration (MIC) was determined by the twofold micro-dilution method in Mu¨ller–Hinton broth for bacterial strains and RPMI 1640 + 2% m/v dextrose for fungi according to the EUCAST recommendations in a sterile 96-well flat-bottom plastic tissue culture plate. MIC was determined using a linear regression curve after incubation of compounds and reading the optical density at 570 nm using an iEMS microplate reader. […] All tests were performed in triplicate and expressed as the mean.
# [2] = system: Candida albicans ATCC 90028; test: MIC determination (broth micro-dilution); format: cell-based; conditions: ATCC90028
# Procedure: as §1
# [3] = system: Candida kefyr ATCC 2512; test: MIC determination (broth micro-dilution); format: cell-based; conditions: Kluyveromyces marxianus, ATCC2512
# Procedure: as §1
# [4] = system: Aspergillus niger ATCC 16404; test: MIC determination (broth micro-dilution); format: cell-based; conditions: ATCC16404
# Procedure: as §1
# [5] = system: Candida tropicalis ATCC 750; test: MIC determination (broth micro-dilution); format: cell-based; conditions: ATCC750
# Procedure: as §1
# [6] = system: Issatchenkia orientalis Kudrjanzev ATCC 6258; test: MIC determination (broth micro-dilution); format: cell-based; conditions: Pichia kudriavzevii, ATCC6258
# Procedure: as §1
# [7] = system: Candida krusei ATCC 14243; test: MIC determination (broth micro-dilution); format: cell-based; conditions: Pichia kudriavzevii, ATCC14243
# Procedure: as §1
# [8] = system: Candida albicans ATCC 10231; test: Minimum biofilm eradication assay; format: cell-based; conditions: ATCC10231, 48 h, read-out: MBEC
# Procedure: (§2) We tested the susceptibility of different bacterial and yeast strains to compounds 5a–f by determining the minimum biofilm eradication concentration (MBEC). The test was performed in a sterile 96-well flat-bottom plastic tissue culture plate (TPP, Switzerland). Each well was filled with 100 µl of bacterial (10^7 CFUs/ml) or yeast (5 × 10^6 CFUs/ml) suspension. When the possibility of inhibition of yeast biofilm formation was tested, the wells were pre-treated with FBS (250 µl per well). Negative controls contained broth only. Positive controls were performed using standard antibacterial and antifungal drugs gentamycin and amphotericin B, respectively. The plates were covered and incubated aerobically for 24 h (bacteria) or 48 h (yeast) at 37 °C. Following the incubation period, each well was aspirated and washed three times with 250 µl of PBS and vigorously shaken in order to remove all non-adherent bacteria/yeast. The remaining attached cells were fixed with methanol (15 min) and the plates were left to dry overnight. The formed biofilm was stained with crystal violet (1%, 5 min). Excess stain was rinsed by placing the plate under running tap water and the plates were left to dry for 24 h. Adherent cells were resolubilized with acetic acid (33%, v/v). The optical density of each well was measured at 570 nm using a Multiscan plate reader. The MBEC value represents the lowest compound dilution at which microorganisms fail to grow.
# [9] = system: Candida albicans ATCC 90028; test: Minimum biofilm eradication assay; format: cell-based; conditions: ATCC90028, 48 h, read-out: MBEC
# Procedure: as §2
# [10] = system: Candida kefyr ATCC 2512; test: Minimum biofilm eradication assay; format: cell-based; conditions: Kluyveromyces marxianus, ATCC2512, 48 h, read-out: MBEC
# Procedure: as §2
# [11] = system: Candida tropicalis ATCC 750; test: Minimum biofilm eradication assay; format: cell-based; conditions: ATCC750, 48 h, read-out: MBEC
# Procedure: as §2
# [12] = system: Candida krusei ATCC 14243; test: Minimum biofilm eradication assay; format: cell-based; conditions: Pichia kudriavzevii, ATCC14243, 48 h, read-out: MBEC
# Procedure: as §2
# [13] = Interaction with 1,1-diphenyl-2-picrylhydrazyl (DPPH); conditions: 100 μΜ
# Procedure: To a solution of DPPH in absolute ethanol, an appropriate volume of the tested compound solution (0.1 mM final concentration) dissolved in DMSO was added. Absorbance was recorded at 517 nm after 20 and 60 min at room temperature (Lambda 20 double beam spectrophotometer, Perkin-Elmer, UK). Experiments were repeated at least in triplicate and the standard deviation of absorbance was less than 10% of the mean[10]. NDGA was used under the same experimental conditions as a reference compound.
# [14] = system: Escherichia coli ATCC 8739; test: MIC determination (broth micro-dilution); format: cell-based; conditions: ATCC8739
# Procedure: as §1
# [15] = system: Pseudomonas aeruginosa ATCC 9027; test: MIC determination (broth micro-dilution); format: cell-based; conditions: ATCC9027
# Procedure: as §1
# [16] = system: Pseudomonas aeruginosa ATCC 27853; test: MIC determination (broth micro-dilution); format: cell-based; conditions: ATCC27853
# Procedure: as §1
# [17] = system: Bacillus subtilis ATCC 6633; test: MIC determination (broth micro-dilution); format: cell-based; conditions: ATCC6633
# Procedure: as §1
# [18] = system: Enterococcus faecalis ATCC 29212; test: MIC determination (broth micro-dilution); format: cell-based; conditions: ATCC29212
# Procedure: as §1
# [19] = system: Staphylococcus aureus ATCC 25923; test: MIC determination (broth micro-dilution); format: cell-based; conditions: ATCC25923
# Procedure: as §1
# [20] = system: Candida parapsylosis ATCC 22019; test: MIC determination (broth micro-dilution); format: cell-based; conditions: ATCC22019
# Procedure: as §1
# [21] = system: Escherichia coli ATCC 10536; test: MIC determination (broth micro-dilution); format: cell-based; conditions: ATCC10536
# Procedure: as §1
# [22] = system: Enterococcus hyrae ATCC 8043; test: MIC determination (broth micro-dilution); format: cell-based; conditions: ATCC8043
# Procedure: as §1
# [23] = system: Kocuria rhizophila ATCC 9341; test: MIC determination (broth micro-dilution); format: cell-based; conditions: ATCC9341
# Procedure: as §1
# [24] = system: Burkholderia caepacia ATCC 25416; test: MIC determination (broth micro-dilution); format: cell-based; conditions: ATCC25416
# Procedure: as §1
# [25] = system: Staphylococcus aureus ATCC 25213; test: MIC determination (broth micro-dilution); format: cell-based; conditions: ATCC25213
# Procedure: as §1
# [26] = system: Bacillus cereus ATCC 11778; test: MIC determination (broth micro-dilution); format: cell-based; conditions: ATCC11778
# Procedure: as §1
# [27] = system: Staphylococcus aureus ATCC 6538; test: MIC determination (broth micro-dilution); format: cell-based; conditions: ATCC6538
# Procedure: as §1
# [28] = Inhibition of linoleic acid peroxidation (LP), AAPH-initiated; set-up: tested at 100 µM; conditions: 100 μΜ, 37 °C
# Procedure: To initiate lipid peroxidation, the free radical AAPH was used[10]. The final solution in the UV cuvette consisted of 10 µl sodium linoleate solution (c = 16 mM) and 0.93 ml phosphate buffer pH 7.4 (c = 50 mM). Afterwards, 10 µl of the tested compound solution in DMSO (final concentration 0.1 mM) and 50 µl of AAPH solution (c = 40 mM) were added. The experiment was performed at 37 °C under air. Oxidation of linoleic acid sodium salt was monitored at 234 nm. The assay was repeated at least in triplicate and the standard deviation of absorbance was less than 10% of the mean. Trolox was used under the same experimental conditions as a reference compound.
# [29] = system: Escherichia coli ATCC 8739; test: Minimum biofilm eradication assay; format: cell-based
# Procedure: as §2
# [30] = system: Pseudomonas aeruginosa ATCC 9027; test: Minimum biofilm eradication assay; format: cell-based
# Procedure: as §2
# [31] = system: Pseudomonas aeruginosa ATCC 27853; test: Minimum biofilm eradication assay; format: cell-based
# Procedure: as §2
# [32] = system: Enterococcus faecalis ATCC 29212; test: Minimum biofilm eradication assay; format: cell-based
# Procedure: as §2
# [33] = system: Candida parapsylosis ATCC 22019; test: Minimum biofilm eradication assay; format: cell-based
# Procedure: as §2
# [34] = system: Escherichia coli ATCC 10536; test: Minimum biofilm eradication assay; format: cell-based
# Procedure: as §2
# [35] = system: Staphylococcus aureus ATCC 25213; test: Minimum biofilm eradication assay; format: cell-based
# Procedure: as §2
# [36] = system: Staphylococcus aureus ATCC 6538; test: Minimum biofilm eradication assay; format: cell-based
# Procedure: as §2
# [37] = system: E. coli (both strains); test: Minimum biofilm eradication assay, E. coli both strains; format: cell-based, Escherichia coli
# Procedure: as §2, with “The MBEC value represents the lowest compound dilution at which microorganisms fail to grow.” left out
compound,measurement,setting,value
"C[C@@H]1[C@H](O)[C@@H](C)/C=C/C=C/C=C/C=C/C=C/C=C/C=C/[C@H](O[C@@H]2O[C@H](C)[C@@H](O)[C@H](N)[C@@H]2O)C[C@@H]2O[C@](O)(C[C@@H](O)C[C@@H](O)[C@H](O)CC[C@@H](O)C[C@@H](O)CC(=O)O[C@H]1C)C[C@H](O)[C@H]2C(=O)O [Amph, amphotericin B, reference compound]",MIC,[1],0.5 µg/mL
same,MIC,[2],0.5 µg/mL
same,MIC,[3],0.5 µg/mL
same,MIC,[4],0.5 µg/mL
same,MIC,[5],0.5 µg/mL
same,MIC,[6],0.5 µg/mL
same,MIC,[7],0.5 µg/mL
same,minimal effective concentration,[8],25 µg/mL
same,minimal effective concentration,[9],25 µg/mL
same,minimal effective concentration,[10],25 µg/mL
same,minimal effective concentration,[11],50 µg/mL
same,minimal effective concentration,[12],50 µg/mL
"CC(Cc1ccc(O)c(O)c1)C(C)Cc1ccc(O)c(O)c1 (centres unmarked) [NDGA, nordihydroguaiaretic acid, reference compound]",DPPH-reducing ability 20 min,[13]; 20 min,83.0 ± 1.0%
same,DPPH-reducing ability 60 min,[13]; 60 min,91.0 ± 1.7%
"CN(C)[C@@H]1C(O)=C(C(N)=O)C(=O)[C@@]2(O)C(O)=C3C(=O)c4c(O)cccc4[C@@](C)(O)[C@H]3C[C@@H]12 [TC, tetracycline, reference compound]",MIC,[14],2.5 µg/mL
same,MIC,[15],3 µg/mL
same,MIC,[16],3 µg/mL
same,MIC,[17],0.31 µg/mL
same,MIC,[18],0.31 µg/mL
same,MIC,[19],0.31 µg/mL
same,MIC,[20],6.13 µg/mL
same,MIC,[21],2.5 µg/mL
same,MIC,[22],0.63 µg/mL
same,MIC,[23],0.63 µg/mL
same,MIC,[24],3 µg/mL
same,MIC,[25],0.16 µg/mL
same,MIC,[26],0.31 µg/mL
same,MIC,[27],0.31 µg/mL
"Cc1c(C)c2c(c(C)c1O)CCC(C)(C(=O)O)O2 (centres unmarked) [Trolox, 6-hydroxy-2,5,7,8-tetramethylchroman-2-carboxylic acid, reference compound]",LP inhibition (%) ± SD,[28],96 ± 2.0%
gentamycin [reference compound],MBEC,[29],25 µg/mL
same,MBEC,[30],50 µg/mL
same,MBEC,[31],50 µg/mL
same,MBEC,[32],50 µg/mL
same,MBEC,[33],50 µg/mL
same,MBEC,[34],25 µg/mL
same,MBEC,[35],12.5 µg/mL
same,MBEC,[36],12.5 µg/mL
same,MBEC,[37],25 µg/mL
